pIC50: −log10 of the molar value. Blank lines part the entries; values can stand above or below the compound they belong to.
Target: T1, α4β1 integrin (Homo sapiens, UniProt P05556+P13612)
T1 construct: endogenous in cells; host or cells: Ramos cells
Experiment: Adhesion of calcein-labeled Ramos cells to CS1 (fibronectin) peptide conjugated ovalbumin
Assay type: cell-based
Conditions: Ramos cell adhesion to CS1 conjugated ovalbumin
Outline: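 Plates bearing CS1 fibronectin peptide coupled to ovalbumin (0.5 μg/ml coat, 3% BSA block) received calcein-labelled Ramos cells plus compound (100 μM stated) for 30 min at 37 °C. Buffer was TBS pH 7.5 with 1 mM Mg2+, Ca2+, Mn2+; bound cells quantified by fluorescence after lysis; […].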

[1] = Table 7, dose required to give 50% inhibition
[2] = Table 5, dose required to give 50% inhibition

T1 sequence (P13612 34-1032): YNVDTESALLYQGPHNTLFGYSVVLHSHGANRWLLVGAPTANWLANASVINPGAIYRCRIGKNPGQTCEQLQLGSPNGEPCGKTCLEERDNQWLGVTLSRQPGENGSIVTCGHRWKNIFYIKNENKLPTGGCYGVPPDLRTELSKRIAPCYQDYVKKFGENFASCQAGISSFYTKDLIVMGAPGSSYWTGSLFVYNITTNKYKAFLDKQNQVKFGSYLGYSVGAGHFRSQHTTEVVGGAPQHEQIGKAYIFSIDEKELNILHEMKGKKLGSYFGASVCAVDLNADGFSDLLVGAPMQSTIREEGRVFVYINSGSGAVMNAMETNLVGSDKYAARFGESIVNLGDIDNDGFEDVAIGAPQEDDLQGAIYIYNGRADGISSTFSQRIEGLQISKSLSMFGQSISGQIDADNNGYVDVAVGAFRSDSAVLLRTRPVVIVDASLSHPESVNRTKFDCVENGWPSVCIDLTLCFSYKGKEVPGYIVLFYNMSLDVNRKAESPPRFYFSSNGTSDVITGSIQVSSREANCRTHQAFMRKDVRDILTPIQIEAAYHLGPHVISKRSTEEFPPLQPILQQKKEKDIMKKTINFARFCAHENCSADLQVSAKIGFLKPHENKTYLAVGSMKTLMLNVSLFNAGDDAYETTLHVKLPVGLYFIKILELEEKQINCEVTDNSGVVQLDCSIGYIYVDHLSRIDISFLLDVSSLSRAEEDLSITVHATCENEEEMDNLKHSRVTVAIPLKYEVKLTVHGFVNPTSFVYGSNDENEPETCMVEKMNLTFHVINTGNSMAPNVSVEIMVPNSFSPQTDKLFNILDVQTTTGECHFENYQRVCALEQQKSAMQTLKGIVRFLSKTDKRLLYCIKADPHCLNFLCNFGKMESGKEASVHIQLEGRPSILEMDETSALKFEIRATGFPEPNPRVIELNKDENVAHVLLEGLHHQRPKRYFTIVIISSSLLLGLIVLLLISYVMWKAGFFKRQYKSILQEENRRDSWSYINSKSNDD
T1 sequence (P05556 21-798): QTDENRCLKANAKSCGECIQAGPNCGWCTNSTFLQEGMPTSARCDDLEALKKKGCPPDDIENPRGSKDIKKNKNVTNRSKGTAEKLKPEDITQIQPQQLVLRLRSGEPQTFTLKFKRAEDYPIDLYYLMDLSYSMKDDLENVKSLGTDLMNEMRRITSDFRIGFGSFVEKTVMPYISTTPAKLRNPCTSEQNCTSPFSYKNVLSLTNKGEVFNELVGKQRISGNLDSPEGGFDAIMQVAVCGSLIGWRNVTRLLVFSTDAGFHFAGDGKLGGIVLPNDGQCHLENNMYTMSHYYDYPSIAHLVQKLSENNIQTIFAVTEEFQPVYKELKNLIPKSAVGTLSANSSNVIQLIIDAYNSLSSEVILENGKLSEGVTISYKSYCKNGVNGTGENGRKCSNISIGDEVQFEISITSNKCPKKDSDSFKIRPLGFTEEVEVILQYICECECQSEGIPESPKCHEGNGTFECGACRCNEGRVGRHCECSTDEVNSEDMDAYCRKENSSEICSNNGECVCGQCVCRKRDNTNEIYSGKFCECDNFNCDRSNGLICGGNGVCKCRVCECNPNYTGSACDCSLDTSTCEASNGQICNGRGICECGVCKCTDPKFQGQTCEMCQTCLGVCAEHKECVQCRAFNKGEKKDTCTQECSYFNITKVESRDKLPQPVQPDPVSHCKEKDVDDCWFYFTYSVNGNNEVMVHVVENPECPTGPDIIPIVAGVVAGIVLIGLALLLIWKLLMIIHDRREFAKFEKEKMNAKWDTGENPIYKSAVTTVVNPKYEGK

SMILES: Cc1cn(Cc2ccccc2Cl)c(=O)c(NC(=O)N[C@@H](CC(=O)O)c2cnc3ccccc3c2)c1O
pIC50 [1]: 7.66

SMILES: CCOc1ccc2cc([C@H](CC(=O)O)NC(=O)Nc3c(O)c(C)cn(Cc4c(Cl)cccc4OCC)c3=O)ccc2c1
pIC50 [1]: 8.22

SMILES: CCOc1cccc(Cl)c1Cn1cc(C)c(O)c(NC(=O)NC(CC(=O)O)c2ccc3ccccc3c2)c1=O (stereo not drawn)
pIC50 [1]: 7.89

SMILES: O=C(O)C[C@H](NC(=O)NC1CCCCN(Cc2ccccc2)C1=O)c1ccc2c(c1)OCO2 (stereo partly drawn)
pIC50 (Table 4, 30 minutes at 37° C.): 7.82

SMILES: COc1cc(C)c([C@H](CC(=O)O)NC(=O)Nc2c(O)ccn(Cc3ccccc3Cl)c2=O)cc1C
pIC50 [2]: 7.10

SMILES: O=C(O)C[C@H](NC(=O)Nc1c(O)c2c(n(Cc3ccccc3Cl)c1=O)CCC2)c1cccc(F)c1
pIC50 [1]: 7.80

SMILES: CCN(CC)c1cccc([C@H](CC(=O)O)NC(=O)Nc2c(O)c3c(n(Cc4c(C)cccc4Cl)c2=O)CCC3)c1
pIC50 [1]: 8.00

SMILES: O=C(O)CC(NC(=O)Nc1c(O)ccn(Cc2ccccc2Cl)c1=O)c1cccs1 (stereo not drawn)
pIC50 (Table 6, 30 minutes at 37° C.): 7.52

SMILES: Cc1ccccc1C[C@H](CC(=O)O)NC(=O)Nc1c(O)ccn(Cc2ccccc2Cl)c1=O
pIC50 [2]: 7.10

SMILES: Cc1ccc([C@H](CC(=O)O)NC(=O)Nc2c(O)c(C)cn(Cc3c(Cl)cccc3Cl)c2=O)cc1
pIC50 (Table 6, 30 minutes at 37° C.): 7.70

SMILES: CCN(CC)c1cccc([C@H](CC(=O)O)NC(=O)Nc2c(O)c(C)cn(Cc3ccccc3Cl)c2=O)c1 [(3S)-3-[({[1-(2-chlorobenzyl)-4-hydroxy-5-methyl-2-oxo-1,2-dihydropyridin-3-yl]amino}carbonyl)amino]-3-[3-(diethylamino)phenyl]propanoic acid]
pIC50 [1]: 8.70

SMILES: COc1cc(Cn2cc(C)c(O)c(NC(=O)N[C@@H](CC(=O)O)c3ccc(C)cc3)c2=O)cc(OC)c1
pIC50 (Table 6, 30 minutes at 37° C.): 7.15

SMILES: COc1cccc([C@H](CC(=O)O)NC(=O)Nc2c(O)ccn(Cc3ccccc3Cl)c2=O)c1 [(3S)-3-{[({1-[(2-chlorophenyl)methyl]-4-hydroxy-2-oxo-1,2-dihydro-3-pyridinyl}amino)carbonyl]amino}-3-[3-(methyloxy)phenyl]propanoic acid]
pIC50 (Table 3, 30 minutes at 37° C.): 8.30

SMILES: CCOc1cccc([C@H](CC(=O)O)NC(=O)Nc2c(O)c3c(n(Cc4c(C)cccc4Cl)c2=O)CCC3)c1 [(3S)-3-[({[1-(2-chloro-6-methylbenzyl)-4-hydroxy-2-oxo-2,5,6,7-tetrahydro-1H-cyclopenta[b]pyridin-3-yl]amino}carbonyl)amino]-3-(3-ethoxyphenyl)propanoic acid]
pIC50 (Table 6, 30 minutes at 37° C.): 8.40

SMILES: CCCc1cn(Cc2c(Cl)cccc2OCC)c(=O)c(NC(=O)N[C@@H](CC(=O)O)c2ccc(C)cc2)c1O
pIC50 [1]: 7.70

SMILES: O=C(O)C[C@H](NC(=O)Nc1cccn(Cc2cccs2)c1=O)c1ccc(F)c(C(F)(F)F)c1
pIC50 (Table 4, 30 minutes at 37° C.): 6.46

SMILES: Cc1ccc([C@H](CC(=O)O)NC(=O)Nc2c(O)ccn(Cc3cc(C(F)(F)F)cc(C(F)(F)F)c3)c2=O)cc1
pIC50 [2]: 6.52

SMILES: Cc1cccc(Cl)c1Cn1c2c(c(O)c(NC(=O)N[C@@H](CC(=O)O)c3cccc(OC(F)(F)F)c3)c1=O)CCC2
pIC50 [1]: 7.96

SMILES: CCOc1cccc([C@H](CC(=O)O)NC(=O)Nc2c(O)c(CC)cn(Cc3c(Cl)cccc3OCC)c2=O)c1
pIC50 (Table 6, 30 minutes at 37° C.): 8.40

SMILES: O=C(O)C[C@H](NC(=O)Nc1cccc(Oc2ccccc2)c1)c1ccc2c(c1)OCO2
pIC50 (Table 4, 30 minutes at 37° C.): 4.30

SMILES: COc1cc([C@H](CC(=O)O)NC(=O)Nc2c(O)c(C)cn(Cc3ccccc3Cl)c2=O)cc(OC)c1C
pIC50 [1]: 7.92

SMILES: COc1cccc(Cl)c1Cn1cc(C)c(O)c(NC(=O)N[C@@H](CC(=O)O)c2ccc(C)c(C)c2)c1=O
pIC50 (Table 6, 30 minutes at 37° C.): 8.52

SMILES: Cc1ccc([C@H](CC(=O)O)NC(=O)Nc2c(O)c(C)cn(Cc3c(Cl)cccc3N3CCCCC3)c2=O)cc1 [(3S)-3-({[(1-{[2-chloro-6-tetrahydro-1(2H)-pyridinylphenyl]methyl}-4-hydroxy-5-methyl-2-oxo-1,2-dihydro-3-pyridinyl)amino]carbonyl}amino)-3-(4-methylphenyl)propanoic acid]
pIC50 [1]: 7.05

SMILES: CCOc1cccc([C@H](CC(=O)O)NC(=O)Nc2c(O)c(C)cn(Cc3c(Cl)cccc3OC)c2=O)c1
pIC50 (Table 6, 30 minutes at 37° C.): 8.52

SMILES: CCn1c2ccccc2c2cc([C@H](CC(=O)O)NC(=O)Nc3c(O)c4c(n(Cc5ccccc5Cl)c3=O)CCC4)ccc21
pIC50 [1]: 7.89

SMILES: CC1(C)Cc2cc([C@H](CC(=O)O)NC(=O)Nc3c(O)c4c(n(Cc5ccccc5Cl)c3=O)CCC4)ccc2O1
pIC50 [1]: 8.52

SMILES: Cc1cccc(Cl)c1Cn1c2c(c(O)c(NC(=O)N[C@@H](CC(=O)O)c3ccc(C4CC4)cc3)c1=O)CCC2
pIC50 [1]: 7.72

SMILES: COc1cccc(Cl)c1Cn1ccc(O)c(NC(=O)N[C@@H](CC(=O)O)c2ccc(OC(F)(F)F)cc2)c1=O
pIC50 [2]: 7.40

SMILES: Cc1ccc([C@H](CC(=O)O)N(C)C(=O)Nc2c(O)ccn(Cc3ccccc3Cl)c2=O)cc1
pIC50 [2]: 6.40

SMILES: O=C(O)C[C@H](NC(=O)Nc1cccn(CCCOc2ccccc2)c1=O)c1ccc2c(c1)OCO2
pIC50 (Table 4, 30 minutes at 37° C.): 4.85

SMILES: O=C(O)CC(NC(=O)Nc1c(O)ccn(Cc2ccccc2Cl)c1=O)c1ccc2ccccc2n1 (stereo not drawn)
pIC50 (Table 6, 30 minutes at 37° C.): 6.98

SMILES: CCOc1ccc(Cl)c(Cl)c1Cn1c2c(c(O)c(NC(=O)N[C@@H](CC(=O)O)c3cccc(OC(C)C)c3)c1=O)CCC2
pIC50 [1]: 8.30

SMILES: Cc1cn(Cc2c(C)cccc2Cl)c(=O)c(NC(=O)NC(CC(=O)O)c2ccc(S(C)(=O)=O)cc2)c1O (stereo not drawn)
pIC50 [1]: 7.37

SMILES: COc1cc([C@H](CC(=O)O)NC(=O)Nc2c(O)c(C)c(C)n(Cc3ccccc3Cl)c2=O)ccc1C
pIC50 [2]: 7.82

SMILES: O=C(O)C[C@H](NC(=O)Nc1c(O)c2c(n(Cc3ccccc3Cl)c1=O)CCC2)c1ccc(F)cc1
pIC50 [1]: 8.05

SMILES: O=C(O)C[C@H](NC(=O)Nc1c(O)ccn(Cc2ccccc2Cl)c1=O)c1ccc(C(F)(F)F)cc1
pIC50 (Table 3, 30 minutes at 37° C.): 7.60

SMILES: O=C(O)C[C@H](NC(=O)Nc1c(O)c2c(n(Cc3ccccc3Cl)c1=O)CCC2)c1cc(C(F)(F)F)cc(C(F)(F)F)c1
pIC50 [1]: 6.89

SMILES: O=C(O)C[C@H](NC(=O)Nc1c(O)ccn(Cc2ccccc2Cl)c1=O)c1ccc(F)c(C(F)(F)F)c1
pIC50 [2]: 7.60

SMILES: Cc1cn(Cc2ccccc2Cl)c(=O)c(NC(=O)N[C@@H](CC(=O)O)c2cccc(OCC(F)(F)F)c2)c1O
pIC50 (Table 6, 30 minutes at 37° C.): 7.82

SMILES: O=C(O)C[C@H](NC(=O)Nc1c(O)c2c(n(Cc3ccccc3Cl)c1=O)CCC2)c1cccc(OC2CC2)c1
pIC50 [1]: 8.40

Results, then the compound that gave them:

pIC50 (Table 4, 30 minutes at 37° C.): 5.22
SMILES: Cc1ccc([C@H](CC(=O)O)NC(=O)Nc2cccn(Cc3ccc(C(C)(C)C)cc3)c2=O)cc1

pIC50 [2]: 7.35
SMILES: Cc1ccc([C@H](CC(=O)O)NC(=O)Nc2c(O)ccn(Cc3cccc(OC(F)(F)F)c3)c2=O)cc1

pIC50 (Table 6, 30 minutes at 37° C.): 7.70
SMILES: CSc1cccc(Cn2ccc(O)c(NC(=O)N[C@@H](CC(=O)O)c3ccc(C)cc3)c2=O)c1

pIC50 (Table 4, 30 minutes at 37° C.): < 5.00
SMILES: Cc1ccc([C@H](CC(=O)O)NC(=O)Nc2cccn(Cc3nc4ccccc4o3)c2=O)cc1

pIC50 (Table 3, 30 minutes at 37° C.): 7.52
pIC50 (Table 4, 30 minutes at 37° C.): 7.52
SMILES: O=C(O)CC(NC(=O)Nc1c(O)ccn(Cc2ccccc2Cl)c1=O)c1ccc(Cl)cc1 (stereo not drawn)

pIC50 (Table 4, 30 minutes at 37° C.): 6.60
SMILES: Cc1ccc([C@H](CC(=O)O)NC(=O)Nc2cccn(Cc3cc(NS(C)(=O)=O)ccc3Br)c2=O)cc1

pIC50 (Table 4, 30 minutes at 37° C.): 7.10
SMILES: Cc1ccc([C@H](CC(=O)O)NC(=O)Nc2cccn(Cc3cc(N)ccc3Br)c2=O)cc1

pIC50 (Table 4, 30 minutes at 37° C.): 6.82
SMILES: Cc1ccc([C@H](CC(=O)O)NC(=O)Nc2cccn(Cc3cc(C)ccc3C)c2=O)cc1

pIC50 (Table 3, 30 minutes at 37° C.): 8.00
SMILES: Cc1ccc([C@H](CC(=O)O)NC(=O)Nc2c(C)nc(C)n(Cc3ccccc3Cl)c2=O)cc1

pIC50 [2]: 7.70
SMILES: COc1ccc(Cn2ccc(O)c(NC(=O)N[C@@H](CC(=O)O)c3ccc(C)cc3)c2=O)cc1

pIC50 [2]: 7.52
SMILES: CCCc1cn(Cc2ccc(Cl)cc2)c(=O)c(NC(=O)N[C@@H](CC(=O)O)c2ccc(C)cc2)c1O

pIC50 (Table 4, 30 minutes at 37° C.): 5.82
SMILES: Cc1cccc(Cn2cccc(NC(=O)N[C@@H](CC(=O)O)c3ccc4c(c3)OCO4)c2=O)c1

pIC50 (Table 3, 30 minutes at 37° C.): 8.40
SMILES: CCCc1ccn(Cc2ccccc2Cl)c(=O)c1NC(=O)N[C@@H](CC(=O)O)c1ccc(C)cc1

pIC50 [2]: 7.22
SMILES: Cc1ccc([C@H](CC(=O)O)NC(=O)Nc2c(O)ccn(Cc3c(C)cc(C)cc3C)c2=O)cc1

pIC50 (Table 4, 30 minutes at 37° C.): 5.82
SMILES: O=C(O)C[C@H](NC(=O)Nc1cccn(Cc2cccs2)c1=O)c1ccc(C(F)(F)F)cc1

pIC50 [2]: 7.46
SMILES: Cc1ccc([C@H](CC(=O)O)NC(=O)Nc2c(O)ccn(Cc3ccccc3S(C)(=O)=O)c2=O)cc1

pIC50 [2]: 6.89
SMILES: Cc1ccc([C@H](CC(=O)O)NC(=O)Nc2c(O)ccn(Cc3cccc(Cl)c3Cl)c2=O)cc1

pIC50 [2]: 7.70
SMILES: Cc1ccc([C@H](CC(=O)O)NC(=O)Nc2c(O)ccn(Cc3ccc(C(F)(F)F)cc3)c2=O)cc1

pIC50 (Table 6, 30 minutes at 37° C.): 7.70
SMILES: Cc1ccc([C@H](CC(=O)O)NC(=O)Nc2c(O)c(C)cn(Cc3cc(F)ccc3C)c2=O)cc1

pIC50 (Table 4, 30 minutes at 37° C.): 5.60
SMILES: Cc1ccc([C@H](CC(=O)O)NC(=O)Nc2cccn(Cc3cc(Cl)ccc3F)c2=O)cc1

pIC50 (Table 4, 30 minutes at 37° C.): 6.46
SMILES: Cc1ccc([C@H](CC(=O)O)NC(=O)Nc2cccn(Cc3cccc(Cl)c3Cl)c2=O)cc1

pIC50 [2]: 7.22
SMILES: Cc1ccc([C@H](CC(=O)O)NC(=O)Nc2c(O)ccn(Cc3cc(C)cc(C)c3)c2=O)cc1

pIC50 (Table 4, 30 minutes at 37° C.): 6.70
SMILES: O=C(O)C[C@H](NC(=O)Nc1cccn(Cc2ccccc2Cl)c1=O)c1ccc(F)c(C(F)(F)F)c1

pIC50 [2]: 7.52
SMILES: Cc1ccc([C@H](CC(=O)O)NC(=O)Nc2c(O)ccn(Cc3ccc(F)cc3F)c2=O)cc1

pIC50 (Table 4, 30 minutes at 37° C.): 6.00
SMILES: O=C(O)C[C@H](NC(=O)Nc1cccn(Cc2cccs2)c1=O)c1ccccc1

pIC50 [2]: 7.52
SMILES: Cc1ccc([C@H](CC(=O)O)NC(=O)Nc2c(O)ccn(Cc3ccc(C(C)(C)C)cc3)c2=O)cc1

pIC50 [2]: 7.10
SMILES: COc1ccccc1Cn1ccc(O)c(NC(=O)N[C@@H](CC(=O)O)c2ccc(C)cc2)c1=O

pIC50 (Table 4, 30 minutes at 37° C.): 5.60
SMILES: Cc1ccc([C@H](CC(=O)O)NC(=O)Nc2cccn(Cc3c(C)cc(C)cc3C)c2=O)cc1

pIC50 (Table 4, 30 minutes at 37° C.): 7.00
SMILES: O=C(O)C[C@H](NC(=O)Nc1cccn(Cc2ccccc2Cl)c1=O)c1ccccc1

pIC50 (Table 4, 30 minutes at 37° C.): 7.70
SMILES: CCOc1ccc([C@H](CC(=O)O)NC(=O)Nc2c(O)ccn(Cc3ccccc3Cl)c2=O)cc1

pIC50 (Table 2, 30 minutes at 37° C.): 9.00
SMILES: Cc1ccccc1NC(=O)Nc1ccc(Cn2cccc(NC(=O)N[C@@H](CC(=O)O)c3ccc4c(c3)OCO4)c2=O)cc1

Reference: patent US6972296B2, “Carboxylic acid derivatives that inhibit the binding of integrins to their receptors” (Encysive Pharmaceuticals Inc., priority 1999, dated 2005)
